# Positions of bridges follow the written chain, without caps; N, C: chain ends. Non-standard residues stand in square brackets, D forms with d. Residues, ends and D or L forms follow the SMILES beside them. *: point of attachment. Ileψ(thiazoline)Cys = CC[C@H](C)[C@H](N)C1=N[C@H](C(=O)*)CS1; Sta = CC(C)C[C@H](N)[C@@H](O)CC(=O)O; dOrn = NCCC[C@@H](N)C(=O)O; Isovaleryl = CC(C)CC(=O)*
# Tests used:
# [1] = system: endopeptidase from the skin of Xenopus laevis; test: Inhibitor studies: enzyme preincubated with inhibitor, then cleavage of substrate peptide read on acid gel; type: biochemical; settings: for % INHIBITION: substrate magainin 2-amide; for effect of proteinase inhibitor on enzyme activity (in words): summary of Table 2
# Procedure: Reaction buffer consisted of 20 mM Na phosphate, 50 mM NaCl final concentration. After quenching the reaction with 0.5 volume of glacial acetic acid, a 15 μl aliquot of each reaction was analyzed by acidic gel electrophoresis. […]
# Inhibitor studies were conducted in the same fashion; the only difference involved first incubating the enzyme with each inhibitor tested at a particular concentration in the absence of any substrate for one hour at room temperature. Substrate was then added to the reaction and allowed to incubate for an additional hour at room temperature.
# ACIDIC GEL ELECTROPHORESIS--Acidic gels (pH 4) were prepared and run as originally described (Gabriel, 1971) with several modifications. The gel solution consisted of a final concentration of 15% (v/v) acrylamide (acrylamide:bisacrylamide/37.5:1), 88 mM KOH, 3% (v/v) glacial acetic acid, 0.75% (v/v) […] (Temed), 0.375% ammonium persulfate (30 mg/ml). Before loading samples, 0.5 volume of glacial acetic acid was added, as well as 0.5 volume of 0.1% Pyronin Y loading dye. MINI PROTEAN gel apparatus (Biorad, Richmond, Calif.) were used and gels electrophoresed at 200 volts in running buffer containing 0.035M β-alanine and glacial acetic acid (2.45 ml/l), pH 4.0. Gels were stained in 0.1% (w/v) Coomassie Brilliant Blue R-250 (Sigma), 50% methanol, 50% water and destained in distilled water.
# [2] = system: endopeptidase from the skin of Xenopus laevis; test: Substrate specificity analyses: cleavage of peptides and analogues by the purified endopeptidase (acid gel, HPLC/amino acid analysis); type: biochemical; settings: 50 μg peptide, one hour, room temperature
# Procedure: ENZYME ASSAYS--Activity was monitored by incubating 0.1-10 μl of each chromatographic fraction with 50 μg of magainin 2-amide substrate in a total volume of 100 μl for one hour at room temperature. Reaction buffer consisted of 20 mM Na phosphate, 50 mM NaCl final concentration. After quenching the reaction with 0.5 volume of glacial acetic acid, a 15 μl aliquot of each reaction was analyzed by acidic gel electrophoresis. One unit of enzyme activity is defined as the amount of enzyme required to convert 25 μg of magainin 2-amide substrate into half-peptide products under the above conditions.
# Substrate specificity analyses were carried out as described above except that 50 μg of each substrate analogue under investigation was substituted for magainin 2-amide in the incubation at the same concentration.
# Before loading samples, 0.5 volume of glacial acetic acid was added, as well as 0.5 volume of 0.1% Pyronin Y loading dye. […]
# 100 μl reactions were injected into a Beckman HPLC System Gold instrument and run on a C18 reversed phase column (4.6×220 mm, Aquapore OD-300, Applied Biosystems, Foster City, Calif.). […] Portions of the resuspended sample were injected into an amino acid analyzer with automated hydrolysis (model 420/130, Applied Biosystems, Foster City, Calif.), and numerical calculations for specific amino acids were determined using an Applied Biosystems 920A data analysis module.
# [3] = inhibitor 1 mM, one unit endopeptidase preincubated one hour
compound,measurement,setting,value
CC[C@H](C)[C@H](NC(=O)CN)C(=O)NCC(=O)N[C@@H](C)C(=O)N[C@H](C(=O)N[C@@H](CC(C)C)C(=O)N[C@@H](CCCCN)C(=O)N[C@H](C(=O)N[C@@H](CC(C)C)C(=O)N[C@H](C(=O)N[C@H](C(=O)NCC(=O)N[C@@H](CC(C)C)C(=O)N1CCC[C@H]1C(=O)N[C@@H](C)C(=O)N[C@@H](CC(C)C)C(=O)N[C@H](C(=O)N[C@@H](CO)C(=O)N[C@@H](Cc1c[nH]c2ccccc12)C(=O)N[C@H](C(=O)N[C@@H](CCCCN)C(=O)N[C@@H](CCCNC(=N)N)C(=O)N[C@@H](CCCCN)C(=O)N[C@@H](CCCNC(=N)N)C(=O)N[C@@H](CCC(N)=O)C(=O)N[C@@H](CCC(N)=O)C(N)=O)[C@@H](C)CC)[C@@H](C)CC)[C@@H](C)O)[C@@H](C)O)C(C)C)C(C)C [melittin],inhibition of cleavage of magainin 2,"[1]; preincubation with tenfold molar excess of peptide, substrate magainin 2",approximately 25%
same,cleavage of the peptide by the endopeptidase (in words),[2],do not serve as substrates
"CC(C)C[C@H](NP(=O)(O)O[C@@H]1O[C@@H](C)[C@H](O)[C@@H](O)[C@H]1O)C(=O)N[C@@H](Cc1c[nH]c2ccccc12)C(=O)O [Phosphoramidon, phosphoramidon]",% INHIBITION,[1]; inhibitor 1 μM,0%
same,% INHIBITION,[1]; inhibitor 100 μM,0%
same,effect of proteinase inhibitor on enzyme activity (in words),[1],no effect on endoproteolysis
"CC(C)CC(=O)N[C@H](C(=O)N[C@H](C(=O)N[C@@H](CC(C)C)[C@@H](O)CC(=O)N[C@@H](C)C(=O)N[C@@H](CC(C)C)[C@@H](O)CC(=O)O)C(C)C)C(C)C [Pepstatin, pepstatin] (Isovaleryl-VV[Sta]A[Sta]-OH)",% INHIBITION,"[1]; inhibitor 100 μm, one unit endopeptidase preincubated one hour",0%
same,effect of proteinase inhibitor on enzyme activity (in words),[1],no effect on enzyme activity
"c1cnc2c(c1)ccc1cccnc12 [1,10-Phenanthroline, 1,10-phenanthroline]",% INHIBITION,[1]; inhibitor 0.2 mM,70%
same,% INHIBITION,[1]; inhibitor 2 mM,100%
same,% INHIBITION,[1]; inhibitor 20 mM,100%
same,effect of proteinase inhibitor on enzyme activity (in words),[1],substantially inhibited enzyme activity
"CC(=O)N[C@@H](CC(C)C)C(=O)N[C@@H](CC(C)C)C(=O)N[C@H](C=O)CCCNC(=N)N [Leupeptin, leupeptin]",% INHIBITION,[1]; [3],0%
same,effect of proteinase inhibitor on enzyme activity (in words),[1],no effect on enzyme activity
K11R: magainin 1 analogue constituting the replacement of all lysines with arginines,cleavage of the peptide by the endopeptidase (in words),[2],effectively served as a substrate
"CC(C)C[C@H](NC(=O)[C@H]1O[C@@H]1C(=O)O)C(=O)NCCCCN=C(N)N [E-64, N-[N-(L-3-trans-carboxyoxiran-2-carbonyl)-L-leucyl]-agmatine]",% INHIBITION,[1]; inhibitor 300 μM,0%
same,effect of proteinase inhibitor on enzyme activity (in words),[1],no effect on enzyme activity
"O=S(=O)(F)Cc1ccccc1 [PMSF, phenylmethanesulfonyl fluoride]",% INHIBITION,[1]; inhibitor 10 mM,0%
same,effect of proteinase inhibitor on enzyme activity (in words),[1],no effect on enzyme activity
tosyl-L-phenylalanine chloromethyl ketone [TPCK],% INHIBITION,[1]; [3],0%
same,effect of proteinase inhibitor on enzyme activity (in words),[1],no effect on enzyme activity
"O=C(O)CN(CCN(CC(=O)O)CC(=O)O)CC(=O)O [EDTA, ethylenediaminetetraacetic acid]",% INHIBITION,[1]; inhibitor 0.5 mM,25%
same,% INHIBITION,[1]; inhibitor 5 mM,25%
same,% INHIBITION,[1]; inhibitor 50 mM,50%
same,effect of proteinase inhibitor on enzyme activity (in words),[1],substantially inhibited enzyme activity
"CC[C@H](C)[C@H](N)C1=N[C@H](C(=O)N[C@@H](CC(C)C)C(=O)N[C@H](CCC(=O)O)C(=O)N[C@H](C(=O)N[C@H]2CCCCNC(=O)[C@H](CC(N)=O)NC(=O)[C@@H](CC(=O)O)NC(=O)[C@H](Cc3cnc[nH]3)NC(=O)[C@@H](Cc3ccccc3)NC(=O)[C@H]([C@@H](C)CC)NC(=O)[C@@H](CCCN)NC2=O)[C@@H](C)CC)CS1 [Bacitracin, bacitracin] ({Ileψ(thiazoline)Cys}-L[dE]IK[dOrn]I[dF]H[dD]N; lactam 4-C)",% INHIBITION,[1]; inhibitor 1 mg/ml,0%
same,effect of proteinase inhibitor on enzyme activity (in words),[1],no effect on endoproteolysis

# — patent publication US5518912A, “Endopeptidase” (priority 1993, dated 1996)
